Where a SMILES comes first, the peptide text is derived from it. Bridges are numbered along the chain shown (N, C = ends). Where no end group is shown, it is not given here. [ ]: non-standard residue; d: D form. The star is where a group is joined. C16 diacid = O=C(O)CCCCCCCCCCCCCCC(=O)*; AEEA = NCCOCCOCC(=O)O
Columns and labels:
FIG. 10A = experiment: FIG. 10A
Method: Table printed on a drawing sheet, FIG. 10A
(§1) The patent's description of the figure: FIGS. 10A-10C. Pharmacokinetic profile and parameter for peptides after intravenous administration. FIG. 10A) Mouse PK data (10 mg/kg, bolus IV, n=3 per timepoint). FIG. 10B) Rat PK data (10 mg/kg, bolus IV, n=3 per timepoint). FIG. 10C) Non-human primate (NHP) PK data (4 mg/kg, 30 min IV infusion, n=3). Error bars represent the standard deviation (SD).
First reader's note: Mouse PK parameters; the legend of the plot on the same sheet gives 10 mg/kg (IV) for both agents.

FIG. 10B = experiment: FIG. 10B
Method: Table printed on a drawing sheet, FIG. 10B
as §1
First reader's note: Rat PK parameters; the plot legend on the same sheet gives 10 mg/kg (IV) for both agents, and the top-left cell 'PK parameters / rat' spans the first two rows.

FIG. 10C = experiment: FIG. 10C
Method: Table printed on a drawing sheet, FIG. 10C
as §1
First reader's note: The species NHP stands in the head column of row 2, and the plot legend on the same sheet gives the dosing as 4 mg/kg (30-min IV) for both agents.

FIG. 9 = experiment: FIG. 9
Method: Table printed on a drawing sheet, FIG. 9
The patent's description of the figure: FIG. 9. In vitro metabolic stability in blood.
First reader's note: Each column is one agent and each row gives its half-life in blood of one species at 37 °C; the test concentration is printed in the row label, or in the cells for human.

CD4+ T cells = experiment: Dendritic Cell-T cell (DC-T) proliferation assay (ProImmune); details: 22 donors; Percentage Stimulation above Background ≥0.5%, SEM=2; peptides 0.34 μM
Source text: A panel of peripheral blood mononuclear cell (PBMC) samples from healthy human donors was selected from the ProImmune Ltd (UK) cell bank. Each PBMC sample was HLA (Human Leukocyte Antigen)-typed and stored in liquid nitrogen (vapor-phase) prior to use. The panel was selected so that HLA class II alleles known to be highly expressed in the global population were well represented (data not shown). Donors were predominantly selected by DRB1 allele expression.
A Dendritic Cell-T cell (DC-T) proliferation assay (ProImmune Ltd) was used to identify the presence or potential T cell epitopes within the peptides. Adherent donor PBMCs were cultured with appropriate growth factors to generate monocyte-derived DCs. DCs were then loaded with a control (control 1 and control 2), the peptide (Agent 1, Agent 2, and Agent 3, see FIG. 8A) or left untreated. The peptides were loaded at a final concentration of 0.34 μM.
Mature antigen-loaded DCs were then co-cultured at a fixed ratio with autologous CFSE-labelled T cells in multi-well plates. Each test condition was set up in eight replicate wells and cells were incubated for 7 days. At the end of the incubation period, cell samples were stained with anti-CD4 antibody, then washed and fixed for by flow cytometric analysis. Proliferation was determined by measuring a decrease in CFSE intensity.
Data were compiled to determine antigen-induced proliferation per individual donor, calculated as Percentage Stimulation above Background. The frequency of positive donor cell responses (Percentage Antigenicity) was calculated as the proportion of responding donors out of total donors. Values were then standardized against the strength of response (an average of the Percentage Stimulation value obtained across accepted donors for each protein) to give a response index (RI).
Data obtained by flow cytometric evaluation of cell samples was analyzed using FlowJo Software (Tree Star, Inc.). The number of CFSE-dim (i.e., proliferating) cells was determined for each sample in eight replicate wells. Counts for the CD4^+ CFSE dim population in each sample were expressed as a proportion of the total CD4^+ population. The eight replicate values were then used to calculate Percentage Stimulation above Background (proportion of CD4^+ CFSE dim cells with antigen stimulation minus the proportion of CD4^+ CFSE dim cells without antigen stimulation).
Background threshold values are based on data from unstimulated cells for which a maximum acceptable resting proliferation threshold is established.
In evaluating antigenicity, it is also appropriate to take account of the frequency of donor cell responses across the study cohort. A positive response (Percentage Stimulation above Background ≥0.5%) in 2 or more independent donor samples is considered indicative of a potential T cell epitope.
Depending on the size of the study, (20, 40 or 50 donors), two responding donors sets a threshold of 10%, 5% or 4% respectively. Thus, following calculation of Percentage Stimulation above Background, the frequency of positive donor cell responses (Percentage Antigenicity) is expressed as the proportion of responding donors out of total accepted donors screened.
When calculating the antigenicity of a protein it is important to consider the strength of a response as well as the frequency of that response. This is because some binding responses may be pan-allele, but these responses may not be very strong. The strength of positive donor cell responses was determined by taking an average of the percentage stimulation value obtained across accepted donors for each protein. Determining a Response Index (RI) through the multiplication of strength and frequency values is more representative of the level of antigenicity.

IFN-β = experiment: Stimulation and sensitization assay in THP1 cells, IFN-β release (ELISA); format: cell-based, human; details: with 2 μM Agent 1
Method: THP1 cells were purchased from ATCC (TIB-202™) and cultured in RPMI 1640 supplemented with 10% FBS and 1% Penicillin/Streptomycin (P/S) at 37° C. and 5% CO2. Passaging of THP1 cells was kept below 20 passages.
ADU-S100 was dissolved according to manufacturer's protocol (tlrl-nacda2r) to 0.5 mg/mL in LAL and subsequently diluted in R10. diABZI Compound 3 was diluted from a 1 mM stock in 100% DMSO into R10. Agent 1 was dissolved to a stock solution of 1250 μM in 50% DMSO, 25 mM HEPES. Concentration of dissolved Agent 1 was determined by A280 measurement using Synergy HI (Biotek Gen5 SW). Subsequently, Agent 1 dilutions were prepared in RPMI 1640, 10% FBS, 1% P/S (R10).
Concentrations of CXCL10 and IFN-β in the collected supernatants were determined by Duo-Set ELISA from R&D. Absorbance measurements at 450/570 nm and quantification were done using Synergy HI plate reader (Biotek Gen5 SW), Microsoft Excel and GraphPad prism v. 9.3.1.
Data analysis and statistical analysis were done using GraphPad prism 9.3.1. […]
Dip: is the plateau in the middle of the curve, corresponding to EMax, same unite as y-axis. The EMax determined here are not derived from this regression, due to the limitations using bell shaped dose response. Instead, EMax-values were determined as the maximum response at any given STING agonist concentration for both IFN-β and CXCL10 from all experiments. […]

For “KKYKNIVLLKGLEVINDYHFGRKKRRQRRRPQ-NH2 [Agent 2]”, the “AUC0-inf” value (FIG. 10A) was 373 ng·h/mL, the “Clobs” value (FIG. 10A) was 447 mL/min/kg and the C0 (FIG. 10A; mouse, in vivo, iv, 10 mg/kg) was 3910 ng/mL. For the same compound, the “AUC0-inf” value (FIG. 10B) was 225 ng·h/mL, the “Clobs” value (FIG. 10B) was 742 mL/min/kg and the C0 (FIG. 10B; rat, in vivo, iv, 10 mg/kg) was 1730 ng/mL. The “AUC0-inf (ng·h/mL)” value (FIG. 10C) was 1,250 ng·h/mL, the “C0 (ng/mL)” value (FIG. 10C) was 2,760 ng/mL and the “Clobs” value (FIG. 10C) was 53.8 mL/min/kg.
With `CC[C@H](C)[C@H](NC(=O)[C@H](CC(N)=O)NC(=O)[C@H](CCCCN)NC(=O)[C@H](C)NC(=O)[C@H](CCCCN)NC(=O)[C@H](CCCCN)NC(=O)COCCOCCNC(=O)COCCOCCNC(=O)CCCCCCCCCCCCCCC(=O)O)C(=O)N[C@H](C(=O)N[C@@H](CC(C)C)C(=O)N[C@@H](CC(C)C)C(=O)N[C@@H](CCCCN)C(=O)NCC(=O)N[C@@H](CC(C)C)C(=O)N[C@@H](CCC(=O)O)C(=O)N[C@H](C(=O)N[C@H](C(=O)N[C@@H](CC(N)=O)C(=O)N[C@@H](CC(=O)O)C(=O)N[C@@H](Cc1c[nH]c2ccccc12)C(=O)N[C@@H](Cc1c[nH]cn1)C(=O)N[C@@H](Cc1ccccc1)C(=O)N[C@H]1CSSC[C@@H](C(N)=O)NC(=O)[C@@H](CCCNC(=N)N)NC(=O)[C@H](CCCNC(=N)N)NC(=O)[C@@H](CCCCN)NC(=O)[C@H](CCCCN)NC(=O)[C@@H](CCCNC(=N)N)NC(=O)CNC(=O)[C@@H](CCCNC(=N)N)NC(=O)[C@H](CCCNC(=N)N)NC(=O)[C@@H](CCCNC(=N)N)NC1=O)[C@@H](C)CC)C(C)C)C(C)C` [Agent 1 T½ (min)] ({C16 diacid-AEEA-AEEA}-KKAKNIVLLKGLEVINDWHFC[dR]R[dR]G[dR]K[dK]R[dR]C-NH2; disulfide 21-31) the “Mouse (@ 5.0 µg/mL)” value (FIG. 9) was 174 min, the “NHP (@ 4.4 µg/mL)” value (FIG. 9) was 172 min and the “Rat (@ 5.0 µg/mL)” value (FIG. 9) was 86 min.
For `CC[C@H](C)[C@H](NC(=O)[C@H](CC(N)=O)NC(=O)[C@H](CCCCN)NC(=O)[C@H](C)NC(=O)[C@H](CCCCN)NC(=O)[C@@H](N)CCCCN)C(=O)N[C@H](C(=O)N[C@@H](CC(C)C)C(=O)N[C@@H](CC(C)C)C(=O)N[C@@H](CCCCN)C(=O)NCC(=O)N[C@@H](CC(C)C)C(=O)N[C@@H](CCC(=O)O)C(=O)N[C@H](C(=O)N[C@H](C(=O)N[C@@H](CC(N)=O)C(=O)N[C@@H](CC(=O)O)C(=O)N[C@@H](Cc1c[nH]c2ccccc12)C(=O)N[C@@H](Cc1c[nH]cn1)C(=O)N[C@@H](Cc1ccccc1)C(=O)N[C@H]1CSSC[C@@H](C(N)=O)NC(=O)[C@@H](CCCNC(=N)N)NC(=O)[C@H](CCCNC(=N)N)NC(=O)[C@@H](CCCCN)NC(=O)[C@H](CCCCN)NC(=O)[C@@H](CCCNC(=N)N)NC(=O)CNC(=O)[C@@H](CCCNC(=N)N)NC(=O)[C@H](CCCNC(=N)N)NC(=O)[C@@H](CCCNC(=N)N)NC1=O)[C@@H](C)CC)C(C)C)C(C)C` [Agent 3] (H-KKAKNIVLLKGLEVINDWHFC[dR]R[dR]G[dR]K[dK]R[dR]C-NH2; disulfide 21-31; N-terminus assumed), the “Response Index (RI)” value (CD4+ T cells) was 0.306 and the percentage antigenicity (CD4+ T cells) was 22.73%.
With `Nc1nc2c(ncn2[C@@H]2O[C@@H]3COP(=O)(O)O[C@H]4[C@@H](O)[C@H](n5cnc6c(N)ncnc65)O[C@@H]4COP(=O)(O)O[C@@H]2[C@@H]3O)c(=O)[nH]1` [2′3′-cGAMP, cyclic 2′3′ GMP-AMP] the “EC50 of cGAMP for IFN expression” value (IFN-β) was “around 20 μg/mL”.
In the case of “KKYKNIVLLKGLEVINDYHFGRKKRRQRRRPQ-NH2 [Agent 2, reference compound]”, the “Response Index (RI)” value (CD4+ T cells) is reported as 0.445 and the percentage antigenicity (CD4+ T cells) is reported as 31.82%.
With “KKYKNIVLLKGLEVINDYHFGRKKRRQRRRPQ-NH2 [Agent 2 T½ (min)]” the “Mouse (@ 5.0 µg/mL)” value (FIG. 9) was 4 min and the “Rat (@ 5.0 µg/mL)” value (FIG. 9) was 3 min.
